How the values were obtained:
[1] = molecular target: T1, Muscarinic acetylcholine receptor M2 (Homo sapiens, UniProt P08172); experiment: Antagonist activity at human recombinant muscarinic M2 receptor expressed in CHO cells coexpressing chimeric G protein Gqi5 assessed as inhibition of acetylcholine-induced intracellular Ca2+ mobilization by FLIPR assay; format: functional, cell-based; conditions: for Kb: read-out: pA2 (converted)
T1 sequence (P08172 whole entry): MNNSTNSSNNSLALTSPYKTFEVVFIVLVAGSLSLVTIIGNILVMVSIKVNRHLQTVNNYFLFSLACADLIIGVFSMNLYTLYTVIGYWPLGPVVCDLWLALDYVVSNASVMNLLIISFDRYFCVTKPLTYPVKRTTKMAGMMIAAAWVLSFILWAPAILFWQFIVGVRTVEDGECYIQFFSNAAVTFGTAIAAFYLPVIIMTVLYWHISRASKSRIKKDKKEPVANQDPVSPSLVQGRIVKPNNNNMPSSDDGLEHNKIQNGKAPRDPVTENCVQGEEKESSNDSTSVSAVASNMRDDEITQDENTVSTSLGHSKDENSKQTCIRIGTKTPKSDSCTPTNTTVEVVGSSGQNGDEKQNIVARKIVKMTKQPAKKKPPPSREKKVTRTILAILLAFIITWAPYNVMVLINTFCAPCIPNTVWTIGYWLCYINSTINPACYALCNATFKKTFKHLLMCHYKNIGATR

[2] = molecular target: T2, Muscarinic acetylcholine receptor M1 (Homo sapiens, UniProt P11229); experiment: Antagonist activity at human recombinant muscarinic M1 receptor expressed in CHO cells assessed as inhibition of acetylcholine-induced intracellular Ca2+ mobilization by FLIPR assay; format: functional, cell-based; conditions: for Kb: read-out: pA2 (converted)
T2 sequence (P11229 whole entry): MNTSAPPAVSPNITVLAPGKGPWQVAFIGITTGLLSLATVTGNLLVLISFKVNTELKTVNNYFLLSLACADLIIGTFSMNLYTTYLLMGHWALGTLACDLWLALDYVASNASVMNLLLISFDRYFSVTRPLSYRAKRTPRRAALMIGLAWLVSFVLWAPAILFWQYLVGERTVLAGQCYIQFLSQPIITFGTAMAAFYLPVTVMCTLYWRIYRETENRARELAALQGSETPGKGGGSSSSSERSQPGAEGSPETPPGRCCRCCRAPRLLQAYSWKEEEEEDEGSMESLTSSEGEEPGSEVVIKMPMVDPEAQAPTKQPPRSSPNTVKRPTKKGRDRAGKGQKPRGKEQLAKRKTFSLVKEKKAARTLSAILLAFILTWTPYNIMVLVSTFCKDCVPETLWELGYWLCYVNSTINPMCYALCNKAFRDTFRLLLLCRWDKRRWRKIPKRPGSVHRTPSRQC

[3] = molecular target: Muscarinic acetylcholine receptor M3 (Homo sapiens, UniProt P20309); experiment: Antagonist activity at human recombinant muscarinic M3 receptor expressed in CHO cells assessed as inhibition of acetylcholine-induced intracellular Ca2+ mobilization by FLIPR assay; format: functional, cell-based; conditions: for Kb: read-out: pA2 (converted)
Chain of Muscarinic acetylcholine receptor M3 (P20309 whole entry): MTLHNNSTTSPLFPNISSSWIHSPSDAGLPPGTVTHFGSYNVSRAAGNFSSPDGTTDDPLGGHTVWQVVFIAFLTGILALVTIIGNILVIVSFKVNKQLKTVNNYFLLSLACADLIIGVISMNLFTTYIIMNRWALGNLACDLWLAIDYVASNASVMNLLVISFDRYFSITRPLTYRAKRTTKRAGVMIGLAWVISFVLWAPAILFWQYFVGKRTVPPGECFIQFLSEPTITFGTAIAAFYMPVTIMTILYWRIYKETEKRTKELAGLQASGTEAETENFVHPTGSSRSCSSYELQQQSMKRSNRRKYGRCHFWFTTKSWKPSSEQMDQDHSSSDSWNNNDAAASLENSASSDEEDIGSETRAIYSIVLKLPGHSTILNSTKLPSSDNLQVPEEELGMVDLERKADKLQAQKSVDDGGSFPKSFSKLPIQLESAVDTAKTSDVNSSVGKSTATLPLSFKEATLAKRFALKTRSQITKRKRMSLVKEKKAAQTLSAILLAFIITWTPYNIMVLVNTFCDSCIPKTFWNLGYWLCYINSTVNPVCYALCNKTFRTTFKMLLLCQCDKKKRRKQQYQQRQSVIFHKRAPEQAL

[4] = molecular target: Muscarinic acetylcholine receptor M1 and M3 (Homo sapiens) (UniProt P20309+P11229); experiment: Selectivity for human recombinant muscarinic M3 receptor over human recombinant muscarinic M1 receptor
Chain of Muscarinic acetylcholine receptor M1 and M3 (Homo sapiens) (P20309 whole entry, looked up, one chain of several): as the sequence (P20309 whole entry) above

[5] = molecular target: Muscarinic acetylcholine receptors; M2 & M3 (Homo sapiens) (UniProt P20309+P08172); experiment: Selectivity for human recombinant muscarinic M3 receptor over human recombinant muscarinic M2 receptor
Chain of Muscarinic acetylcholine receptors; M2 & M3 (Homo sapiens) (P20309 whole entry, looked up, one chain of several): as the sequence (P20309 whole entry) above

Row | SMILES | IC50 [1] | IC50 [2] | IC50 [3] | Kb [1] | Kb [2] | Kb [3] | Selectivity ratio [4] | Selectivity ratio [5]
1 | CCOC(=O)c1ccc(NC(=O)N[C@@H](Cc2ccc(N)cc2)C(=O)N[C@H]2CC[N+](C)(Cc3ccc4c(c3)OCO4)C2)cc1 (some centres undefined) | 15.8 nM | 1260 nM | 15.8 nM | – | – | – | – | –
2 | CCOC(=O)c1ccc(NC(=O)N[C@@H](Cc2ccc(C#N)cc2)C(=O)N[C@H]2CC[N+](C)(Cc3ccc4c(c3)OCO4)C2)cc1 (some centres undefined) | 12.6 nM | 251 nM | 50.1 nM | – | – | – | – | –
3 | CC(C)OC(=O)c1ccc(NC(=O)N[C@@H](Cc2ccc(O)cc2)C(=O)N[C@H]2CCC[N+](CC3CC3)(CC3CC3)C2)cc1 | – | – | – | 5.01 nM | 39.8 nM | 0.631 nM | – | –
4 | CCOC(=O)c1ccc(NC(=O)N[C@@H](Cc2ccc(OC)cc2)C(=O)N[C@H]2CC[N+](C)(Cc3ccc4c(c3)OCO4)C2)cc1 (some centres undefined) | 5.01 nM | 79.4 nM | 39.8 nM | – | – | – | – | –
5 | CC(C)NC(=O)c1ccc(NC(=O)N[C@@H](Cc2ccc(O)cc2)C(=O)N[C@H]2CCC[N+](C)(Cc3ccc(O)cc3)C2)cc1 (some centres undefined) | – | – | – | 3.98 nM | 79.4 nM | 0.631 nM | – | –
6 | CCOC(=O)c1ccc(NC(=O)N[C@@H](Cc2ccc(Cl)c(Cl)c2)C(=O)N[C@H]2CC[N+](C)(Cc3ccc4c(c3)OCO4)C2)cc1 (some centres undefined) | 12.6 nM | 39.8 nM | 25.1 nM | – | – | – | – | –
7 | CCCOC(=O)c1ccc(NC(=O)N[C@@H](Cc2ccc(O)cc2)C(=O)NC2CCN(Cc3ccc(O)cc3)C2)cc1 (some centres undefined) | 100 nM | 1000 nM | 10 nM | – | – | – | – | –
8 | CC(C)NC(=O)c1ccc(NC(=O)N[C@@H](Cc2ccc(O)cc2)C(=O)NC2CCN(Cc3ccc(C#N)cc3)C2)cc1 (some centres undefined) | 1580 nM | > 3160 nM | 100 nM | – | – | – | – | –
9 | CCOC(=O)c1ccc(NC(=O)N[C@@H](Cc2ccc(O)cc2)C(=O)N[C@H]2CCC[N+](C)(Cc3ccc(F)cc3)C2)cc1 (some centres undefined) | 2.51 nM | 100 nM | 2 nM | – | – | – | – | –
10 | CCOC(=O)c1ccc(NC(=O)N[C@@H](Cc2ccc(C(F)(F)F)cc2)C(=O)N[C@H]2CC[N+](C)(Cc3ccc4c(c3)OCO4)C2)cc1 (some centres undefined) | 10 nM | 50.1 nM | 31.6 nM | – | – | – | – | –
11 | CCCNC(=O)c1ccc(NC(=O)N[C@@H](Cc2ccc(O)cc2)C(=O)NC2CCN(Cc3ccc(C#N)cc3)C2)cc1 (some centres undefined) | > 3160 nM | > 3160 nM | 501 nM | – | – | – | – | –
12 | N#Cc1ccc(CN2CCC(NC(=O)[C@H](Cc3ccc(O)cc3)NC(=O)Nc3ccc(C(=O)Nc4ccccc4)cc3)C2)cc1 (some centres undefined) | > 3160 nM | > 3160 nM | 501 nM | – | – | – | – | –
13 | CCOC(=O)c1ccc(NC(=O)N[C@@H](Cc2cccc(Cl)c2)C(=O)N[C@H]2CC[N+](C)(Cc3ccc4c(c3)OCO4)C2)cc1 (some centres undefined) | 3.98 nM | 25.1 nM | 7.94 nM | – | – | – | – | –
14 | CCOC(=O)c1ccc(NC(=O)N[C@@H](Cc2ccc(OC)c(OC)c2)C(=O)N[C@H]2CC[N+](C)(Cc3ccc4c(c3)OCO4)C2)cc1 (some centres undefined) | 50.1 nM | 631 nM | 1260 nM | – | – | – | – | –
15 | CCN(CC)C(=O)c1ccc(NC(=O)N[C@@H](Cc2ccc(O)cc2)C(=O)NC2CCN(Cc3ccc(C#N)cc3)C2)cc1 (some centres undefined) | > 3160 nM | > 3160 nM | 398 nM | – | – | – | – | –
16 | Cc1noc(-c2ccc(NC(=O)N[C@@H](Cc3ccc(O)cc3)C(=O)N[C@H]3CCC[N+](C)(Cc4ccc(O)cc4)C3)cc2)n1 (some centres undefined) | – | – | – | 6.31 nM | 158 nM | 2 nM | – | –
17 | CCOC(=O)c1ccc(NC(=O)N[C@@H](Cc2ccc(O)cc2)C(=O)NC2CCN(Cc3ccc(O)cc3)C2)cc1 (mixture of isomers) | – | – | – | – | – | – | 100 | 10
18 | CC(C)OC(=O)c1ccc(NC(=O)N[C@@H](Cc2ccc(O)cc2)C(=O)N[C@H]2CCC[N+]3(CCCCCC3)C2)cc1 | – | – | – | 5.01 nM | 79.4 nM | 3.16 nM | – | –
19 | CCOC(=O)c1ccc(NC(=O)N[C@@H](Cc2ccc(C)cc2)C(=O)N[C@H]2CC[N+](C)(Cc3ccc4c(c3)OCO4)C2)cc1 (some centres undefined) | 10 nM | 100 nM | 15.8 nM | – | – | – | – | –
20 | CCOC(=O)c1ccc(NC(=O)N[C@@H](Cc2ccccc2Cl)C(=O)N[C@H]2CC[N+](C)(Cc3ccc4c(c3)OCO4)C2)cc1 (some centres undefined) | 100 nM | 2000 nM | 126 nM | – | – | – | – | –
